Test results published in publication PMC2649372 (Biochemistry, 2008).
Positions count from the first letter of the chain named. Marks after values point to notes of the source that are not given here.

Columns and labels:
Assay in all cases: Agonist-induced currents, voltage clamp electrophysiology in Xenopus oocytes
Assay type in all cases: cell-based
[1] = target: T1, WT 5-HT3 receptor (mouse 5-HT3A subunit) (Mus musculus, UniProt P23979); settings: WT
T1 sequence (P23979 24-483 isoform P23979-2 limits assumed): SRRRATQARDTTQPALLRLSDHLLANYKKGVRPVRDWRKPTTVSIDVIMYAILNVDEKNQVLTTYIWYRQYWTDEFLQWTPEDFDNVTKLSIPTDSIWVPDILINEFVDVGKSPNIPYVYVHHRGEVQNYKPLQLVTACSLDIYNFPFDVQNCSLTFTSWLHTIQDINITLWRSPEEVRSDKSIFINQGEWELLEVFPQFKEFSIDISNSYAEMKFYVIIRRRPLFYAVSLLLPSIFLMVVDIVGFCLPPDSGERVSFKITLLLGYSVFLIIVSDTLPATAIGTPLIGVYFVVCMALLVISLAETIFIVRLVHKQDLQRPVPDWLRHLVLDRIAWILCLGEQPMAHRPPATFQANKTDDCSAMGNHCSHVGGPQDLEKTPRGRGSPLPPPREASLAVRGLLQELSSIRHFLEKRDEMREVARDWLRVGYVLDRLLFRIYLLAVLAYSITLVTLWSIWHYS

[2] = target: T2, N128A mutant 5-HT3 receptor (mouse 5-HT3A subunit) (Mus musculus, UniProt P23979, N128A); settings: N128A
T2 sequence (P23979 24-483 isoform P23979-2 N128A limits assumed): T1 sequence (P23979 24-483 isoform P23979-2 limits assumed) with N105A

[3] = target: T3, N128E mutant 5-HT3 receptor (mouse 5-HT3A subunit) (Mus musculus, UniProt P23979, N128E); settings: N128E
T3 sequence (P23979 24-483 isoform P23979-2 N128E limits assumed): T1 sequence (P23979 24-483 isoform P23979-2 limits assumed) with N105E

[4] = target: T4, N128Q mutant 5-HT3 receptor (mouse 5-HT3A subunit) (Mus musculus, UniProt P23979, N128Q); settings: N128Q
T4 sequence (P23979 24-483 isoform P23979-2 N128Q limits assumed): T1 sequence (P23979 24-483 isoform P23979-2 limits assumed) with N105Q

[5] = target: T5, E129D mutant 5-HT3 receptor (mouse 5-HT3A subunit) (Mus musculus, UniProt P23979, E129D); settings: E129D
T5 sequence (P23979 24-483 isoform P23979-2 E129D limits assumed): T1 sequence (P23979 24-483 isoform P23979-2 limits assumed) with E106D

[6] = oocytes, holding potential −60 mV

NCCc1c[nH]c2ccc(O)cc12 [5-HT, 5-hydroxytryptamine]
nH (Hill coefficient) [1]: 2.54 ± 0.15
nH (Hill coefficient) [2]: 1.34 ± 0.13 ^b
nH (Hill coefficient) [3]: 1.48 ± 0.18 ^b
nH (Hill coefficient) [4]: 2.11 ± 0.29
nH (Hill coefficient) [5]: 1.81 ± 0.16 ^b
size of agonist response (current) [5]: > 5 µA

N=C(N)NC(=N)Nc1cccc(Cl)c1 [mCPBG, m-chlorophenylbiguanide]
nH (Hill coefficient) [1]: 2.03 ± 0.23
EC50 [1, 6]: 470 nM
pEC50 [1, 6]: 6.33 ± 0.02
EC50 [2]: 1100 nM
nH (Hill coefficient) [2]: 1.33 ± 0.08
pEC50 [2]: 5.95 ± 0.02
EC50 [3]: 280 nM
nH (Hill coefficient) [3]: 1.81 ± 0.019
pEC50 [3]: 6.56 ± 0.03
EC50 [4]: 3000 nM
nH (Hill coefficient) [4]: 2.41 ± 0.16
pEC50 [4]: 5.52 ± 0.18 ^b
EC50 [5]: 250 nM
nH (Hill coefficient) [5]: 1.19 ± 0.31
size of agonist response (current) [5]: > 5 µA
pEC50 ([5]; SR = small (<100 nA) responses): 6.60 ± 0.10
